For assay [1], the target named is T1, human Cystic Fibrosis Transmembrane Conductance Regulator (CFTR) harboring the ΔF508 mutation (Homo sapiens, UniProt P13569, DEL508-508).
T1 construct: expressed in transfected cells; host or cells: H441 carcinoma line (G418-selected)
Briefly: H441 cell ΔF508-CFTR-HRP cell surface assay (Emax and EC50). In kind it is cell-based. As to conditions: for Emax: NCI-H441, NA = Not active. A digest of the protocol: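 H441 and 41o- bronchial epithelial cells expressing ΔF508-CFTR with an extracellular-loop-4 HRP tag were treated with a 15-point compound series (24.5–0.001 μM) for two nights, H441 at 27° C, 41o- at 37° C with 0.0005 mg/ml doxycycline. Surface HRP luminescence read; % of maximum VX809 signal and EC50 derived.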

For assay [2], the target named is T2, CFTR-mediated transepithelial chloride transport in primary human bronchial epithelial cells from a ΔF508 homozygous CF donor (Homo sapiens, UniProt P13569, DEL508-508).
T2 construct: Primary human bronchial epithelial cells from a ΔF508 homozygous CF donor; host or cells: primary CF-HBE cells, ΔF508 homozygous donor
T2 sequence (P13569 with tags, fused parts or gaps DEL508-508): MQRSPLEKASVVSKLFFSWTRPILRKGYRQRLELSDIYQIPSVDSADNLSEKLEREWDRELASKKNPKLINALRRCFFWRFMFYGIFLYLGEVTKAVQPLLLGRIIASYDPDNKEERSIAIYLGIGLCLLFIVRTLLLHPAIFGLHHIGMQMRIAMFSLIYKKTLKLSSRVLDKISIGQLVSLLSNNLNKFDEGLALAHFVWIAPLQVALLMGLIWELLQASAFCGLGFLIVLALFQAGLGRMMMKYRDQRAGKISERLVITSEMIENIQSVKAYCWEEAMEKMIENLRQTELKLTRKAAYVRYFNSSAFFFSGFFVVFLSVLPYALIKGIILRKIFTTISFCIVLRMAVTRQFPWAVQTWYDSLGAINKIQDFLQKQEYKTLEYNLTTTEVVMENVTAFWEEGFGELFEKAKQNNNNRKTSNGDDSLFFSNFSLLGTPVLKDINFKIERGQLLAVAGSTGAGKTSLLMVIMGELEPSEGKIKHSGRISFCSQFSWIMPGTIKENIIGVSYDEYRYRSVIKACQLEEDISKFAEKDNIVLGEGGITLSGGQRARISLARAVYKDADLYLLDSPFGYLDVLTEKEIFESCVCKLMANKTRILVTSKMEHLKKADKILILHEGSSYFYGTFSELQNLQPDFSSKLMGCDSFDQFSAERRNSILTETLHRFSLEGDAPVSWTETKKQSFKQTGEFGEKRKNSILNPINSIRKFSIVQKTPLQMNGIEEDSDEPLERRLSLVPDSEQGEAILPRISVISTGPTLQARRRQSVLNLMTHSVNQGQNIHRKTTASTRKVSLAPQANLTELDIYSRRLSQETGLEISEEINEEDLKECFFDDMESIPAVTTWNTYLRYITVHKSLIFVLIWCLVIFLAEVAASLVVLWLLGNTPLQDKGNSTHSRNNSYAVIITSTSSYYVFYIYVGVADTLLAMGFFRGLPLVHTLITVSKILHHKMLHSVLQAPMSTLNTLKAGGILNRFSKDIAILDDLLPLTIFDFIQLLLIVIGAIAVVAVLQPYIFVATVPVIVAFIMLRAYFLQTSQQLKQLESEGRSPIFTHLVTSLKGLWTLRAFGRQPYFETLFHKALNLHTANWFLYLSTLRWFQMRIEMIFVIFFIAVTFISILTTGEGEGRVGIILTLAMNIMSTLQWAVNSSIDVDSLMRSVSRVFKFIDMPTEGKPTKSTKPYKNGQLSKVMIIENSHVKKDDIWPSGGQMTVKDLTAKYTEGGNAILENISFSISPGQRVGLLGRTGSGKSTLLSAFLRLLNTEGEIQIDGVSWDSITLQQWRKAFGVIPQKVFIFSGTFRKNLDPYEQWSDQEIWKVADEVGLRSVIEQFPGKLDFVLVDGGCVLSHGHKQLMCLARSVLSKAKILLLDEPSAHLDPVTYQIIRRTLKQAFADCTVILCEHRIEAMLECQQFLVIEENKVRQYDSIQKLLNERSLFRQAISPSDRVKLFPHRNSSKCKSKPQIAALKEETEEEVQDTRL
Briefly: TECC24 recording of CFTR-mediated transepithelial chloride transport in CF-HBE cells (AUC fold over DMSO). In kind it is cell-based. As to conditions: test agent 10 μM, 48 hours incubation, AUC of forskolin-stimulated IEQ relative to DMSO. The gist of the method: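 Primary ΔF508/ΔF508 CF-HBE cells on inserts exposed to test agent in IL-13-containing medium for 48 h at 36.5 °C. Current-clamp VT/TEER recording in pH 7.4 HEPES saline with benzamil 10 μM, forskolin 10 μM, then CFTRinh-172 20 μM. AUC of equivalent Cl⁻ current between forskolin and inhibitor, expressed as ratio over vehicle.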

T1 sequence (P13569 with tags, fused parts or gaps DEL508-508): as above

In assay [1], `O=C(N[C@H](C(=O)O)C1CCCC1)c1ccc2ccccc2c1OCc1ccc(C(F)(F)F)cc1` [Example 154, (S)-2-cyclopentyl-2-(1-((4-(trifluoromethyl)benzyl)oxy)-2-naphthamido)acetic Acid] displayed an EC50 of 1.9 µM and an Emax of 118%. Moreover, the “TECC24 AUC fold over DMSO @10 μM” value in assay [2] was “A (“A” refers to AUC @10 uM >6)”.

In assay [1], `O=C(N[C@H](C(=O)O)C1CCCC1)c1ccc2ccccc2c1OCC1CCC(F)(F)CC1` [Example 155, (S)-2-cyclopentyl-2-(1-((4,4-difluorocyclohexyl)methoxy)-2-naphthamido)acetic Acid] registered an EC50 of 4.1 µM and a maximum response (Emax) of 60.7%. Besides, the “TECC24 AUC fold over DMSO @10 μM” value in assay [2] was “C (“C” refers to AUC @10 uM <4)”.

As for `CC(C)(SCC1CC1(F)F)[C@H](NC(=O)c1ccc2ccccc2c1OCc1ccc(C(F)(F)F)cc1)C(=O)O` (stereo partly drawn) [Example 163, (2R)-3-(((2,2-difluorocyclopropyl)methyl)thio)-3-methyl-2-(1-((4-(trifluoromethyl)benzyl)oxy)-2-naphthamido)butanoic Acid], in assay [1], the response was half-maximal at 0.7 µM (EC50) and the maximum response (Emax) was determined as 138%. In assay [2], the “TECC24 AUC fold over DMSO @10 μM” value is “C (“C” refers to AUC @10 uM <4)”.

`CC(C)(SCC1CC1(F)F)[C@H](NC(=O)c1ccc2ccccc2c1OCc1ccc(SC(F)(F)F)cc1)C(=O)O` (stereo partly drawn) [Example 164, (2R)-3-(((2,2-difluorocyclopropyl)methyl)thio)-3-methyl-2-(1-((4-((trifluoromethyl)thio)benzyl)oxy)-2-naphthamido)butanoic Acid]: in assay [1], a half-maximal effect (EC50) was put at 0.6 µM and the Emax came out at 112%. For the same compound, the “TECC24 AUC fold over DMSO @10 μM” value in assay [2] was “C (“C” refers to AUC @10 uM <4)”.

Take `CC(C)(SCC1CC1(F)F)[C@H](NC(=O)c1ccc2ccccc2c1OCC1CCCCC1)C(=O)O` (stereo partly drawn) [Example 165, (2R)-2-(1-(cyclohexylmethoxy)-2-naphthamido)-3-(((2,2-difluorocyclopropyl)methyl)thio)-3-methylbutanoic Acid]: in assay [1], a half-maximal effect (EC50) was put at 3.4 µM and the Emax was found to be 113%. Besides, the “TECC24 AUC fold over DMSO @10 μM” value in assay [2] was “C (“C” refers to AUC @10 uM <4)”.

In assay [1], `CC(C)(SCC1CC1(F)F)[C@H](NC(=O)c1ccc2cc(F)ccc2c1OCc1ccc(SC(F)(F)F)cc1)C(=O)O` (stereo partly drawn) [Example 167, (2R)-3-(((2,2-difluorocyclopropyl)methyl)thio)-2-(6-fluoro-1-((4-((trifluoromethyl)thio)benzyl)oxy)-2-naphthamido)-3-methylbutanoic Acid] came in with an EC50 of 1.2 µM and an Emax of 63.5%. Moreover, in assay [2], the “TECC24 AUC fold over DMSO @10 μM” value is on record as “C (“C” refers to AUC @10 uM <4)”.

Regarding `CC(C)(SC1CCCC1)[C@H](NC(=O)c1ccc2ccccc2c1OCc1ccc(C(F)(F)F)cc1)C(=O)O` [Example 168, (R)-3-(cyclopentylthio)-3-methyl-2-(1-((4-(trifluoromethyl)benzyl)oxy)-2-naphthamido)butanoic Acid], in assay [1], it took 0.8 µM to reach a half-maximal effect (EC50) and the Emax worked out at 157%. Moreover, the “TECC24 AUC fold over DMSO @10 μM” value in assay [2] is listed as “B (“B” refers to AUC @10 uM between 4-6)”.

In assay [1], `CC(C)(SC1CCCC1)[C@H](NC(=O)c1ccc2ccccc2c1OCc1ccc(SC(F)(F)F)cc1)C(=O)O` [Example 169, (R)-3-(cyclopentylthio)-3-methyl-2-(1-((4-((trifluoromethyl)thio)benzyl)oxy)-2-naphthamido)butanoic Acid] yielded a concentration for a half-maximal effect (EC50) of 0.4 µM and an Emax of 138%. The “TECC24 AUC fold over DMSO @10 μM” value in assay [2] is listed as “B (“B” refers to AUC @10 uM between 4-6)”.

`CC(C)(SC1CCCC1)[C@H](NC(=O)c1ccc2ccccc2c1OCC1CCCCC1)C(=O)O` [Example 170, (R)-2-(1-(cyclohexylmethoxy)-2-naphthamido)-3-(cyclopentylthio)-3-methylbutanoic Acid]: in assay [1], the EC50 is 5 µM and the maximal response (Emax) is 143%. Also, the “TECC24 AUC fold over DMSO @10 μM” value in assay [2] was “C (“C” refers to AUC @10 uM <4)”.

In assay [1], `CC(C)(SC1CCCC1)[C@H](NC(=O)c1ccc2cc(F)ccc2c1OCc1ccc(SC(F)(F)F)cc1)C(=O)O` [Example 172] came in with an EC50 of 0.5 µM and an Emax of 62.7%. For the same compound, the “TECC24 AUC fold over DMSO @10 μM” value in assay [2] is given as “C (“C” refers to AUC @10 uM <4)”.

In the case of `CC(C)(S[C@@H]1C[C@@H]2CC[C@H]1C2)[C@H](NC(=O)c1ccc2ccccc2c1OCc1ccc(C(F)(F)F)cc1)C(=O)O` [Example 173, (R)-3-(((1S,2R,4R)-bicyclo[2.2.1]heptan-2-yl)thio)-3-methyl-2-(1-((4-(trifluoromethyl)benzyl)oxy)-2-naphthamido)butanoic Acid], in assay [1], the midpoint of the response, the EC50, lay at 0.7 µM and the Emax turned out to be 164%. The “TECC24 AUC fold over DMSO @10 μM” value in assay [2] is on record as “B (“B” refers to AUC @10 uM between 4-6)”.

Take `CC(C)(S[C@@H]1C[C@@H]2CC[C@H]1C2)[C@H](NC(=O)c1ccc2ccccc2c1OCc1ccc(SC(F)(F)F)cc1)C(=O)O` [Example 174, (R)-3-(((1S,2R,4R)-bicyclo[2.2.1]heptan-2-yl)thio)-3-methyl-2-(1-((4-((trifluoromethyl)thio)benzyl)oxy)-2-naphthamido)butanoic Acid]: in assay [1], the response was half-maximal at 0.3 µM (EC50) and the maximal response (Emax) stood at 117%. Moreover, the “TECC24 AUC fold over DMSO @10 μM” value in assay [2] was “C (“C” refers to AUC @10 uM <4)”.

In assay [1], `CC(C)(SC1CC2CCC1C2)[C@H](NC(=O)c1ccc2ccccc2c1OCC1CCCCC1)C(=O)O` (stereo partly drawn) [Example 175] displayed an EC50 of 3 µM and an Emax of 152%. In addition, in assay [2], the “TECC24 AUC fold over DMSO @10 μM” value was “C (“C” refers to AUC @10 uM <4)”.

As to `CC(C)(S[C@@H]1C[C@@H]2CC[C@H]1C2)[C@H](NC(=O)c1ccc2cc(F)ccc2c1OCc1ccc(SC(F)(F)F)cc1)C(=O)O` [Example 177, (R)-3-(((1S,2R,4R)-bicyclo[2.2.1]heptan-2-yl)thio)-2-(6-fluoro-1-((4-((trifluoromethyl)thio)benzyl)oxy)-2-naphthamido)-3-methylbutanoic Acid], in assay [1], the response was half-maximal at 0.7 µM (EC50) and the Emax was 64.7%. The “TECC24 AUC fold over DMSO @10 μM” value in assay [2] is “C (“C” refers to AUC @10 uM <4)”.

In assay [1], `Cc1cc(C)c(C[C@H](NC(=O)c2ccc3ccccc3c2OCc2ccc(C(F)(F)F)cc2)C(=O)O)c(C)c1` [Example 178, (S)-3-mesityl-2-(1-((4-(trifluoromethyl)benzyl)oxy)-2-naphthamido)propanoic Acid] registered a half-maximal effective concentration (EC50) of 0.9 µM and an Emax of 150%. For the same compound, in assay [2], the “TECC24 AUC fold over DMSO @10 μM” value is reported as “C (“C” refers to AUC @10 uM <4)”.

In assay [1], `CC(C)(C)C[C@H](NC(=O)c1ccc2ccccc2c1OC[C@H]1CC[C@H](C(F)(F)F)CC1)C(=O)O` [Example 179, (S)-4,4-dimethyl-2-(1-(((1r,4S)-4-(trifluoromethyl)cyclohexyl)methoxy)-2-naphthamido)pentanoic Acid] had an EC50 of 3.4 µM and an Emax of 103%. Besides, the “TECC24 AUC fold over DMSO @10 μM” value in assay [2] is on record as “C (“C” refers to AUC @10 uM <4)”.

As to `O=C(N[C@H](C(=O)O)C(c1ccccc1)c1ccccc1)c1ccc2ccccc2c1OCc1ccc(OC(F)(F)F)cc1` [Example 189, (S)-3,3-diphenyl-2-(1-((4-(trifluoromethoxy)benzyl)oxy)-2-naphthamido)propanoic Acid], in assay [1], it took 2.4 µM to reach a half-maximal effect (EC50) and the maximum response (Emax) turned out to be 14.3%. The “TECC24 AUC fold over DMSO @10 μM” value in assay [2] was “C (“C” refers to AUC @10 uM <4)”.

Turning to `O=C(N[C@H](C(=O)O)C(c1ccccc1)c1ccccc1)c1ccc2cc(F)ccc2c1OCc1ccc(C(F)(F)F)cc1` [Example 196], in assay [1], the EC50 was 0.3 µM and the Emax came to 101%. Also, the “TECC24 AUC fold over DMSO @10 μM” value in assay [2] is listed as “C (“C” refers to AUC @10 uM <4)”.

Turning to `O=C(N[C@@H](Cc1ccc(C(F)(F)F)cc1)C(=O)O)c1ccc2cc(F)ccc2c1OCc1ccc(C(F)(F)F)cc1` [Example 197, (S)-2-(6-fluoro-1-((4-(trifluoromethyl)benzyl)oxy)-2-naphthamido)-3-(4-(trifluoromethyl)phenyl)propanoic Acid], in assay [1], a half-maximal response (EC50) required 11.5 µM and the Emax is 80.8%. Moreover, the “TECC24 AUC fold over DMSO @10 μM” value in assay [2] is “B (“B” refers to AUC @10 uM between 4-6)”.

In assay [1], `CC(C)(C)C[C@H](NC(=O)c1ccc2cc(F)ccc2c1OCc1ccc(C(F)(F)F)cc1)C(=O)O` [Example 198, (S)-2-(6-fluoro-1-((4-(trifluoromethyl)benzyl)oxy)-2-naphthamido)-4,4-dimethylpentanoic Acid] displayed an EC50 of 1.5 µM and an Emax of 94.4%. Also, the “TECC24 AUC fold over DMSO @10 μM” value in assay [2] is “A (“A” refers to AUC @10 uM >6)”.

In assay [1], `O=C(N[C@H](C(=O)O)C(c1ccccc1)c1ccccc1)c1ccc2ccccc2c1OCC1CCCCC1` [Example 199, (S)-2-(1-(cyclohexylmethoxy)-2-naphthamido)-3,3-diphenylpropanoic Acid] displayed an EC50 of 0.5 µM and an Emax of 129%. Moreover, the “TECC24 AUC fold over DMSO @10 μM” value in assay [2] is on record as “C (“C” refers to AUC @10 uM <4)”.

As for `CC(C)(C)C[C@H](NC(=O)c1ccc2ccccc2c1OCC1CCCCC1)C(=O)O` [Example 201, (S)-2-(1-(cyclohexylmethoxy)-2-naphthamido)-4,4-dimethylpentanoic Acid], in assay [1], a half-maximal response (EC50) required 4.1 µM and the Emax was determined as 135%. Besides, in assay [2], the “TECC24 AUC fold over DMSO @10 μM” value is on record as “C (“C” refers to AUC @10 uM <4)”.

For the origin of these results see patent US12630498B2 (Genzyme Corporation, priority 2019, dated 2026).
